Measurements taken from ChEMBL document CHEMBL5537204, “Identifying Marine-Derived Tanzawaic Acid Derivatives as Novel Inhibitors against Osteoclastogenesis and Osteoporosis via Downregulation of NF-κB and NFATc1 Activation” (J Med Chem, 2024).
pKd: −log10 of the molar value. Calls of active or inactive are those of the source. The rule behind the calls is not given here.

How the values were obtained:
[1] = system: RAW264.7; assay: Inhibition of LPS-induced NF-kappaB activation in mouse RAW264.7 cells expressing luciferase gene at 20 uM preincubated with compound for 30 mins followed by LPS-induction and measured after 6 hrs by luciferase reporter gene assay; format: cell-based; details: time 6.5 hrs
[2] = system: RAW264.7; assay: Inhibition of LPS-induced NF-kappaB activation in mouse RAW264.7 cells expressing luciferase gene preincubated with compound for 30 mins followed by LPS-induction and measured after 6 hrs by luciferase reporter gene assay; format: cell-based; details: dose 20.0 µM, time 6.5 hrs
[3] = system: BMMC; assay: Anti-osteoporosis activity in C57BL/6 mouse BMMC cells assessed as reduction in RANKL-induced osteoclasts formation at 10 uM incubated for 4 days in presence of MCSF by TRAP staining based assay; format: functional
[4] = system: Mus musculus; assay: Anti-osteoporosis activity in OVX-induced osteoporosis C57BL/6 mouse model assessed as prevention of bone loss in femur at 60 mg/kg, IG administered every 3 days for 8 weeks; format: functional, organism-based
[5] = system: Mus musculus; assay: Anti-osteoporosis activity in OVX-induced osteoporosis C57BL/6 mouse model assessed as increase in connectivity density in femur at 60 mg/kg, IG administered every 3 days for 8 weeks; format: functional, organism-based
[6] = system: Mus musculus; assay: Anti-osteoporosis activity in OVX-induced osteoporosis C57BL/6 mouse model assessed as increase in BV/TV in femur at 60 mg/kg, IG administered every 3 days for 8 weeks; format: functional, organism-based
[7] = Toxicity in C57BL/6 mouse assessed as abnormal behavior at 60 mg/kg, IG administered every 3 days for 46 days; format: organism-based; details: in vivo, po, 1104 h, time 46 day
[8] = Toxicity in C57BL/6 mouse assessed as animal death at 60 mg/kg, IG administered every 3 days for 46 days; format: organism-based; details: in vivo, po, 1104 h, time 46 day
[9] = system: RAW264.7; assay: Inhibition of RANKL-induced NF-kappaB activation in mouse RAW264.7 cells expressing luciferase gene assessed as reduction in p65 protein level in nucleus preincubated with compound for 4 hrs followed by LPS-induction and measured after 6 hrs by Western blot analysis; format: cell-based; details: dose 1-10 µM, time 10.0 hrs
[10] = system: RAW264.7; assay: Inhibition of RANKL-induced NF-kappaB activation in mouse RAW264.7 cells expressing luciferase gene preincubated with compound for 4 hrs followed by LPS-induction and measured after 6 hrs by luciferase reporter gene assay; format: cell-based; details: dose 1-10 µM, time 10.0 hrs
[11] = system: Mus musculus; assay: Anti-osteoporosis activity in OVX-induced osteoporosis C57BL/6 mouse model assessed as increase in BV/TV in femur at 5 to 10 mg/kg, IG administered every 3 days for 8 weeks; format: functional, organism-based; details: dose 5-10 mg/kg
[12] = system: BMMC; assay: Anti-osteoclastogenesis activity in RANKL-induced C57BL/6 mouse BMMC cells assessed as suppression of NFATc1 expression level in nucleus at 1 to 10 uM pretreated with compound for 4 hrs followed by RANKL-induction and measured after 24 hrs by Western blot analysis; format: functional, cell-based; details: dose 1-10 µM, time 28.0 hrs
[13] = system: Mus musculus; assay: Anti-osteoporosis activity in OVX-induced osteoporosis C57BL/6 mouse model assessed as downregulation of NFATc1 expression in bone at 5 to 10 mg/kg, IG administered every 3 days for 8 weeks by IHC analysis; format: functional, organism-based; details: dose 5-10 mg/kg
[14] = target: Transcription factor p65 (Mus musculus, UniProt Q04207); assay: Binding affinity to NF-kappaB p65 in mouse RAW264.7 cells assessed as dissociation constant by SPR analysis
[15] = system: BMMC; assay: Anti-osteoclastogenesis activity in C57BL/6 mouse BMMC cells assessed as reduction in RANKL-induced osteoclasts formation at 5 uM incubated for 4 days in presence of MCSF by TRAP staining based assay; format: functional; design: scale not given: the % may be the effect or the level left; details: time 4 day
[16] = system: BMMC; assay: Anti-osteoclastogenesis activity in RANKL-induced C57BL/6 mouse BMMC cells assessed as inhibition of TRAP mRNA expression pretreated with compound for 4 hrs followed by RANKL-induction and measured after 24 hrs by RT-PCR analysis; format: functional, cell-based; details: dose 1-10 µM, time 28.0 hrs
[17] = system: BMMC; assay: Anti-osteoclastogenesis activity in RANKL-induced C57BL/6 mouse BMMC cells assessed as inhibition of OSCAR mRNA expression pretreated with compound for 4 hrs followed by RANKL-induction and measured after 24 hrs by RT-PCR analysis; format: functional, cell-based; details: dose 1-10 µM, time 28.0 hrs
[18] = Toxicity in C57BL/6 mouse assessed as animal death at 5 to 10 mg/kg, IG administered every 3 days for 46 days; format: organism-based; details: in vivo, po, 1104 h, dose 5-10 mg/kg, time 46 day
[19] = system: Mus musculus; assay: Anti-osteoporosis activity in OVX-induced osteoporosis C57BL/6 mouse model assessed as prevention of bone loss in femur at 5 to 10 mg/kg, IG administered every 3 days for 8 weeks by H and E staining based analysis; format: functional, organism-based; details: dose 5-10 mg/kg
[20] = Toxicity in C57BL/6 mouse assessed as abnormal behavior at 5 to 10 mg/kg, IG administered every 3 days for 46 days; format: organism-based; details: in vivo, po, 1104 h, dose 5-10 mg/kg, time 46 day
[21] = system: Mus musculus; assay: Anti-osteoporosis activity in OVX-induced osteoporosis C57BL/6 mouse model assessed as increase in connectivity density in femur at 5 to 10 mg/kg, IG administered every 3 days for 8 weeks; format: functional, organism-based; details: dose 5-10 mg/kg
[22] = system: BMMC; assay: Cytotoxicity against mouse BMMC cells assessed as reduction in cell viability at 10 uM incubated for 4 days by MTT assay; format: toxicity, cell-based; details: 96 h, time 4 day
[23] = system: BMMC; assay: Anti-osteoclastogenesis activity in RANKL-induced C57BL/6 mouse BMMC cells assessed as inhibition of Atp6v0d2 mRNA expression pretreated with compound for 4 hrs followed by RANKL-induction and measured after 24 hrs by RT-PCR analysis; format: functional, cell-based; details: dose 1-10 µM, time 28.0 hrs
[24] = system: RAW264.7; assay: Downregulation of p65 expression in RANKL-induced mouse RAW264.7 cells expressing NFATc1 at 10 uM pretreated with compound for 4 hrs followed by RANKL-induction and measured after 24 hrs by Western blot analysis; format: functional, cell-based; details: time 28.0 hrs
[25] = system: Mus musculus; assay: Anti-osteoporosis activity in OVX-induced osteoporosis C57BL/6 mouse model assessed as prevention of bone loss in femur at 10 mg/kg, IG administered every 3 days for 8 weeks; format: functional, organism-based
[26] = system: BMMC; assay: Anti-osteoclastogenesis activity in C57BL/6 mouse BMMC cells assessed as reduction in RANKL-induced osteoclasts formation incubated for 4 days in presence of MCSF by TRAP staining based assay; format: functional, cell-based; details: dose 1-10 µM, time 4.0 day
[27] = target: Transcription factor p65 (Mus musculus) (UniProt Q04207); assay: Binding affinity to NF-kappaB p65 in mouse RAW264.7 cells assessed as thermal stabilization at 10 uM at 37 to 57 degreeC incubated for 4 hrs by CETSA assay; format: cell-based
[28] = system: Mus musculus; assay: Anti-osteoporosis activity in OVX-induced osteoporosis C57BL/6 mouse model assessed as prevention of bone loss in femur at 5 to 10 mg/kg, IG administered every 3 days for 8 weeks; format: functional, organism-based; details: dose 5-10 mg/kg
[29] = system: Mus musculus; assay: Anti-osteoporosis activity in OVX-induced osteoporosis C57BL/6 mouse model assessed as downregulation of p65 expression in bone at 5 to 10 mg/kg, IG administered every 3 days for 8 weeks by IHC analysis; format: functional, organism-based; details: dose 5-10 mg/kg
[30] = system: RAW264.7; assay: Inhibition of RANKL-induced NF-kappaB activation in mouse RAW264.7 cells expressing luciferase gene assessed as suppression of IkappaBalpha degradation at 1 to 10 uM preincubated with compound for 4 hrs followed by LPS-induction and measured after 6 hrs by Western blot analysis; format: cell-based; details: dose 1-10 µM, time 10.0 hrs

Chain of Transcription factor p65 (Mus musculus) (Q04207 whole entry): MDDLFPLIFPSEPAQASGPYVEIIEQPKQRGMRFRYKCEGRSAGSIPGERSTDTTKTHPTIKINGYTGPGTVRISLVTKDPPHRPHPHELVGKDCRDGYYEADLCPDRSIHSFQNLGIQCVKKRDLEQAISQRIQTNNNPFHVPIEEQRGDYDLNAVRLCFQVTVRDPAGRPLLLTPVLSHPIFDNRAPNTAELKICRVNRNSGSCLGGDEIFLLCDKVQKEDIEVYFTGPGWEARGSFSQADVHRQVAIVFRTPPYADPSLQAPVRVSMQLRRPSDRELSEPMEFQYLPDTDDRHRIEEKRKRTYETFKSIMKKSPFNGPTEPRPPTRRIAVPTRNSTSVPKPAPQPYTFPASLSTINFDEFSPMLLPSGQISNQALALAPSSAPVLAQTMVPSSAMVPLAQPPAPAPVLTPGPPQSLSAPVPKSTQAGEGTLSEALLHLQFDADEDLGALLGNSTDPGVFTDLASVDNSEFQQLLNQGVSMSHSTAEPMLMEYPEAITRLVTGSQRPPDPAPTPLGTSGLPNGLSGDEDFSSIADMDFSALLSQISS
Chain of Transcription factor p65 (Q04207 whole entry): as above

Cc1ccc2c(c1/C=C/C=C/C(=O)O)[C@H](C)C[C@H](C)C2
inhibition [1]: Active

Cc1ccc2c(c1/C=C/C=C/C(=O)O)[C@H](C)C[C@H](C)[C@H]2O
inhibition [1]: Active

CC(=O)OC[C@@H](C)C[C@@H](C)c1cccc(C)c1/C=C/C=C/C(=O)O
inhibition [2]: Dose-Dependent Effect
Activity ([3]; time 4.0 day): Active

Cc1ccc2c(c1/C=C/C=C/C(=O)O)[C@H](C)C[C@H](C)[C@@H]2O
inhibition [1]: Active

CC(=O)OC[C@@H]1Cc2ccc(C)c(/C=C/C=C/C(=O)O)c2[C@H](C)C1
inhibition [1]: Active

C[C@]12CC[C@@H]3c4ccc(O)cc4CC[C@H]3[C@@H]1CC[C@@H]2O [ESTRADIOL]
Activity [4]: Active
Activity [5]: Active
Activity [6]: Active
Activity [7]: Non-Toxic
Activity [8]: Non-Toxic

C[C@@H]1[C@@H](O)[C@H](O)[C@@H]2C[C@H](CO)C[C@H](C)[C@H]2[C@]1(O)/C=C/C=C/C(=O)O
inhibition [2]: Dose-Dependent Effect

CC1=CC(=O)[C@H]2C[C@@H](C)C[C@@H](C)[C@@H]2[C@]1(O)/C=C/C=C/C(=O)O
inhibition [2]: Dose-Dependent Effect

C[C@@H]1C[C@@](C)(O)C[C@@H]2C=C[C@H](C)[C@](O)(/C=C/C=C/C(=O)O)[C@@H]12
inhibition [2]: Dose-Dependent Effect
Activity ([3]; time 4.0 day): Active

CO[C@H]1C=C(C)[C@H](/C=C/C=C/C(=O)O)[C@@H]2[C@@H]1C[C@@H](CO)C[C@H]2C
inhibition [2]: Dose-Dependent Effect

CC1=C(/C=C/C=C/C(=O)O)[C@@H]2[C@H](C[C@](C)(O)C[C@H]2C)[C@@H](O)[C@H]1O
inhibition [2]: Dose-Dependent Effect

CC(=O)OC[C@H]1C[C@@H](C)[C@H]2[C@@H](C=C[C@H](C)[C@]2(O)/C=C/C=C/C(=O)O)C1
inhibition [2]: Dose-Dependent Effect

Cc1ccc2c(c1/C=C/C=C/C(=O)O)[C@H](C)C[C@@](C)(O)[C@H]2O
inhibition [2]: Dose-Dependent Effect
Activity ([3]; time 4.0 day): Active
inhibition [1]: Active

CC1=C(/C=C/C=C/C(=O)O)[C@H]2[C@H](C=C1)C[C@H](C)C[C@@H]2C
inhibition [2]: Dose-Dependent Effect

C[C@@H]1C[C@@H]2[C@@H](C(=O)O)[C@H](C)[C@](O)(/C=C/C=C/C(=O)O)[C@H]2[C@H](C)C1
inhibition [2]: Dose-Dependent Effect

C[C@H]1C[C@H]2[C@@H](O)[C@H](Cl)[C@@H](C)[C@@](O)(/C=C/C=C/C(=O)O)[C@@H]2[C@@H](C)C1
inhibition [2]: Dose-Dependent Effect
Activity ([3]; time 4.0 day): Active

C[C@@H]1C[C@@](C)(O)C[C@@H]2C=C[C@H](C)[C@H](/C=C/C(=O)O)[C@@H]12
inhibition [2]: Dose-Dependent Effect

Cc1cccc([C@H](C)C[C@H](C)CO)c1/C=C/C=C/C(=O)O
inhibition [9]: Dose-Dependent Effect
inhibition [2]: Dose-Dependent Effect
inhibition [10]: Dose-Dependent Effect
Activity [11]: Active
Activity [12]: Active
Activity [13]: Active
pKd [14]: 4.35
Activity [15]: 49.2%
Activity [16]: Dose-Dependent Effect
Activity [17]: Dose-Dependent Effect
Activity [18]: Non-Toxic
Activity [19]: Active
Activity [20]: Non-Toxic
Activity [21]: Active
Activity [22]: Non-Toxic
Activity [23]: Dose-Dependent Effect
Activity [24]: Active
Activity [25]: Active
Activity [26]: Dose-Dependent Effect
Activity ([3]; time 4 day): 69.7%
Activity [27]: Active
Activity [28]: Active
Activity [29]: Active
inhibition [30]: Active

Cc1ccc2c(c1/C=C/C=C/C(=O)O)[C@H](C)C[C@H](CO)C2
inhibition [1]: Active

C[C@@H]1C[C@](O)(CO)C[C@@H]2C=C[C@H](C)[C@H](/C=C/C=C/C(=O)O)[C@@H]12
inhibition [2]: Dose-Dependent Effect

C[C@@H]1Cc2ccc(CO)c(/C=C/C=C/C(=O)O)c2[C@H](C)C1
inhibition [1]: Active

Cc1ccc2c(c1/C=C/C=C/C(=O)O)[C@H](C)C[C@@](C)(O)C2
inhibition [2]: Dose-Dependent Effect
inhibition [1]: Active

CC(=O)C[C@@H](C)c1cccc(C)c1/C=C/C=C/C(=O)O
inhibition [2]: Dose-Dependent Effect

C[C@@H]1C[C@@](C)(O)C[C@@H]2C=C[C@H](C)[C@H](/C=C/C=C/C(=O)O)[C@@H]12
inhibition [2]: Dose-Dependent Effect

C[C@@H]1[C@@H](Cl)[C@H](O)[C@@H]2C[C@@](C)(O)C[C@H](C)[C@H]2[C@]1(O)/C=C/C=C/C(=O)O
inhibition [2]: Dose-Dependent Effect

C[C@@H]1C[C@@](C)(O)C[C@@H]2C=C[C@@](C)(/C=C/C=C/C(=O)O)C(=O)[C@@H]12
inhibition [2]: Dose-Dependent Effect

CC(=O)OCc1ccc2c(c1/C=C/C=C/C(=O)O)[C@H](C)C[C@H](C)C2
inhibition [1]: Active

C[C@@H]1[C@@H](Cl)[C@H](O)[C@@H]2C[C@H](CO)C[C@H](C)[C@H]2[C@@H]1/C=C/C=C/C(=O)O
inhibition [2]: Dose-Dependent Effect
Activity ([3]; time 4.0 day): Active
